# Structures can show the parent of a compound that is named as a salt.
# Assays:
# Format in all cases: biochemical
# [1] = biological target: T1, Phosphorylated FGF receptor kinase (FGFR1 cytosolic domain) (Homo sapiens, UniProt P11362, C488A/C584S/L457V); experiment: Inhibition of phosphorylated FGF receptor tyrosine kinase activity (coupled spectrophotometric assay); settings: read-out: P-FGF % Inhibition at 1 μM
# T1 construct: FGFR1 tyrosine kinase (amino acids 456-766); made in house; host or cells: Sf9 insect cells (baculovirus)
# Experimental: (§1) Cloning, expression and purification of the cytosolic domain of FGFR1 tyrosine kinase (amino acids 456-766) containing three amino acid substitutions (L457V, C488A, and C584S) were conducted as previously described (Mohammadi, M., Schiessinger, J., & Hubbard, S. R. Cell, 86, (1996) 577-587). This domain was expressed in Sf9 insect cells using a baculovirus expression vector, and protein was purified using conventional techniques. The LCK tyrosine kinase was expressed in insect cells as an N-terminal deletion starting from amino acid 223 to the end of the protein at amino acid 509. The N-terminus of the protein also had two amino acid substitutions, P223M and C224D. Kinases were purified using conventional chromatographic methods.
# (§2) Tyrosine kinase activity was measured using a coupled, continuous spectrophotometric assay, in which production of phosphorylated poly(Glu,Tyr; 4:1) substrate and ADP is coupled to the pyruvate kinase-catalyzed transfer of a phosphate from phosphoenolpyruvate to ADP, with generation of pyruvate and regeneration of ATP. Pyruvate production is in turn coupled to the lactate dehydrogenase-catalyzed reduction of pyruvate to form lactate, with concomitant conversion of NADH to NAD^+. Loss of NADH is monitored by measuring absorbance at 340 nm (see e.g., Technikova-Dobrova et al., “Spectrophotometric Determination of Functional Characteristics of Protein Kinases with Coupled Enzymatic Assay,” FEBS Letters, 292 (1991), pp. 69-72). Enzyme activity was measured in the presence of 200 mM HEPES (pH 7.5), 2 mM phosphoenolpyruvate, 0.3 mM NADH, 20 mM MgCl2, 100 μM ATP, 5 mM DTT, 5.1 or 25 mM poly (Glu,Tyr) 4:1 for P-FGF or P-LCK assays, respectively, and 15 units/mL each of pyruvate kinase and lactate dehydrogenase. Phosphorylated FGF receptor kinase was present at 100 nM and phosphorylated LCK kinase was present at 50 nM. Assays were performed under initial rate conditions at 37° C., and rates were corrected for any background rate measured in the absence of enzyme. Percent inhibition was calculated relative to control enzyme assayed in the presence of 2% (v/v) DMSO.
# [2] = biological target: T2, phosphorylated LCK kinase (Homo sapiens, UniProt P06239, C224D/P223M); experiment: Inhibition of phosphorylated LCK tyrosine kinase activity (coupled spectrophotometric assay); settings: read-out: P-LCK % Inhibition at 1 μM
# T2 construct: starting from amino acid 223 to the end of the protein at amino acid 509; made in house; host or cells: insect cells
# Experimental: as §1, §2
# CDK2/cyclin A = biological target: T3, CDK2/cyclin A (Homo sapiens, UniProt P24941); experiment: Inhibition of CDK2/cyclin A retinoblastoma kinase activity (Ki; % inhibition); settings: apparent Ki, CDK2/cyclin A, Rb substrate
# T3 construct: made in house; host or cells: CDK2: insect cells (baculovirus); cyclin A: E. coli
# Outline: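 Radiometric filter assay of CDK2/proteolyzed cyclin A (baculovirus-expressed human CDK2, 10 or 19 nM) phosphorylating an Rb fragment with 25 μM [³²P/³³P]ATP in pH 7.4 HEPES, 2% DMSO, at 30 °C for 60 or 75 min under initial-rate conditions. Library compounds screened at 30 nM for % inhibition; apparent Ki from concentration series fit to competitive or tight-binding inhibition equations.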
# human CDK4/cyclin D3 = biological target: T4, human CDK4/cyclin D3 (Homo sapiens, UniProt P11802); experiment: Inhibition of CDK4/cyclin D retinoblastoma kinase activity (Ki; % inhibition); settings: apparent Ki, CDK4/cyclin D3, Rb substrate
# T4 construct: made in house; host or cells: insect cells co-infected with baculovirus vectors
# Outline: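 Insect-cell-expressed CDK4 with truncated cyclin D3 (1-264), 5 nM, phosphorylating His-tagged Rb fragment (386-928) with 25 μM [32/33P]ATP at pH 7.4, 30 °C, 20 min (60 min for tight binders). Filter capture, phosphorimager read; % inhibition at 30 nM compound, Ki from competitive or tight-binding fits.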
# T1 sequence (P11362 456-766 L457V/C488A/C584S): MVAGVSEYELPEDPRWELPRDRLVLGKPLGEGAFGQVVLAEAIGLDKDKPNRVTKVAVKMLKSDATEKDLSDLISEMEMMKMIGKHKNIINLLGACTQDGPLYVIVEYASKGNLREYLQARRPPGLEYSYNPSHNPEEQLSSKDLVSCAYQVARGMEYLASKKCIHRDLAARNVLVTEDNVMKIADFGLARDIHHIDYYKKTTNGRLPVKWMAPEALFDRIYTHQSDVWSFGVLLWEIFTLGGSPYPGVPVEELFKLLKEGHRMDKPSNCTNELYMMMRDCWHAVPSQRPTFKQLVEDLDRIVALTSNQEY
# T4 sequence (P11802 whole entry): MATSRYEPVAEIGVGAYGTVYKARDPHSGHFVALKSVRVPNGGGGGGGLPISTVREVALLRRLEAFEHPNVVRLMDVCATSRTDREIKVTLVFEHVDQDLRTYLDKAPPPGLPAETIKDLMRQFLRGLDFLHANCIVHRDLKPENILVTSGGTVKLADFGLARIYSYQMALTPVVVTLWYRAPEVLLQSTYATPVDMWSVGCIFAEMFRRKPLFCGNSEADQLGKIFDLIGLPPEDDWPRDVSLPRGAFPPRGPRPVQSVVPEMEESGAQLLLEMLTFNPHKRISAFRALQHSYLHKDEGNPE
# T4 sequence (P30281 1-264 partner limits assumed): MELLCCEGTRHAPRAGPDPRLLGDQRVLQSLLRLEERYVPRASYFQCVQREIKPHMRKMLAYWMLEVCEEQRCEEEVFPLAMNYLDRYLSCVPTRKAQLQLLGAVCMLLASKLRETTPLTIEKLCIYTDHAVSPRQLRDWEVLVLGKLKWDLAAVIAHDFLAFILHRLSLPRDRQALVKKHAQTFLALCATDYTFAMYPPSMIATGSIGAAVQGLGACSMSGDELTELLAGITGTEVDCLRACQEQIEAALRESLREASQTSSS
# T2 sequence (P06239 223-509 P223M/C224D): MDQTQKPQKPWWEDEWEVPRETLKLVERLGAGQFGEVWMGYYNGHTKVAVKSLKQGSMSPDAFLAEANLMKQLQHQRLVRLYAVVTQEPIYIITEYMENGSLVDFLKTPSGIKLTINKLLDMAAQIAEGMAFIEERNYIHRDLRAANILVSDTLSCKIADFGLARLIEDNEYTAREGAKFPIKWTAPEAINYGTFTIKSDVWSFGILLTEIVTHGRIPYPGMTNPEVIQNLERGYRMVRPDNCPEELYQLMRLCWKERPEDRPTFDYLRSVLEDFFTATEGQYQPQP
Compound,inhibition at 1 µM [1] [%],inhibition at 1 µM [2] [%],Ki (CDK2/cyclin A) [µM],Ki (human CDK4/cyclin D3) [µM]
"Nc1nc(Nc2ccc(C(=O)NCCc3ccc(O)cc3)cc2)sc1C(=O)c1c(F)cccc1F [Example A14, 4-[4-Amino-5-(2,6-difluoro-benzoyl)-thiazol-2-ylamino]-N-[2-(4-hydroxy-phenyl)-ethyl]-benzamide]",0,0,0.06,0.014
"CC(CN(C)C)NC(=O)c1ccc(Nc2nc(N)c(C(=O)c3c(F)cccc3F)s2)cc1 (centres unmarked) [Example A20, 4-[4-Amino-5-(2,6-difluoro-benzoyl)-thiazol-2-ylamino]-N-(2-dimethylamino-1RS-methyl-ethyl)-benzamide Hydrochloride Salt]",0,0,0.162,0.032
"CN1CCC[C@H]1CNC(=O)c1ccc(Nc2nc(N)c(C(=O)c3c(F)cccc3F)s2)cc1 [Example A31, 4-[4-Amino-5-(2,6-difluoro-benzoyl)-thiazol-2-ylamino]-N-(1-methyl-pyrrolidin-2S-yl-methyl)-benzamide Dihydrochloride]",0,0,0.049,0.007
Nc1nc(Nc2ccc(C(=O)Nc3ccc(N4CCOCC4)cc3)cc2)sc1C(=O)c1c(F)cccc1F [Example A21],0,0,0.105,0.105
"Nc1nc(Nc2ccc(C(=O)NCCN3CCCCC3)cc2)sc1C(=O)c1c(F)cccc1F [Example A15, 4-[4-Amino-5-(2,6-difluoro-benzoyl)-thiazol-2-ylamino]-N-(2-piperidin-1-yl-ethyl)-benzamide]",0,0,0.15,0.007
